Consider 2 compounds from patent US20050154536A1, “Two-part drug discovery system” (The University of Pittsburgh - of the Commonwealth System …, priority 2001, published 2005).

For one series, the system named is C57B1/6 mice. Nature of the series: Endotoxemia protocol in C57B1/6 mice (LPS alone). Format: in vivo. The protocol: Mice: All animal experiments were approved by the Institutional Animal Care and Use Committee of the University of Pittsburgh. All studies were carried out in C57B1/6 mice (6-10 wk old mice; Charles River Laboratories, Charles River, Me.).
Endotoxemia, in which LPS is directly introduced into an animal, is a highly reproducible means for inducing acute systemic inflammation. […] Circulating levels of TNF and IL-10 increase rapidly and decay quickly, whereas IL-6 levels peak at approximately 2-3 h and decay more slowly. The levels of NO, measured as the stable reaction product NO2^−NO3^−, remain elevated for 24 h. Levels of TNF and NO2^−/NO3^− seem to be saturated at 3 mg/kg whereas IL-6 and IL-10 saturate at 6mg/kg (FIG. 8): at 12 mg/kg (FIG. 9), the levels of most analytes are not much higher as compared to those of animals treated with 6 mg/kg LPS.

The subject of the next series is RAW 264.7 cells. As to the kind of experiment: Steady-state expression of TNF and iNOS transcripts in RAW 264.7 cells. The settings on record: RAW 264.7 cells incubated with LPS. Format: cell-based, murine.
Series [1] deals with LPS-stimulated RAW 264.7 murine macrophage-like cells. As to conditions: LPS-stimulated RAW 264.7 cells; concentration-dependent.

Turning to lipopolysaccharide [LPS], the “survival until final time point” value in the series with C57B1/6 mice (LPS 3, 6 or 12 mg/kg intraperitoneally, 24 h following injection) was “All of the mice survived”. In addition, the “time of IL-6 peak level in circulation” value in the series with C57B1/6 mice (LPS 3 or 6 mg/kg intraperitoneally) lay in the range of 2 to 3 h. Also, in the series with RAW 264.7 cells, the “steady-state expression of TNF transcripts” value is recorded as “markedly increased” and the “steady-state expression of iNOS transcripts” value is “markedly increased”.

Regarding `NC(=O)C1=CN([C@@H]2O[C@H](COP(=O)(O)OP(=O)(O)OC[C@H]3O[C@@H](n4cnc5c(N)ncnc54)[C@H](O)[C@@H]3O)[C@@H](O)[C@H]2O)C=CC1` [NAD+, Reduced nicotinamide adenine dinucleotide], in series [1], the “concentration of NO2−/NO3− in supernatants” value was “decreased” and the “concentration of TNF-α in supernatants” value was “decreased”. For the same compound, in the series on RAW 264.7 cells, the “steady-state expression of TNF transcripts” value is recorded as “decreased” and the “steady-state expression of iNOS transcripts” value is “decreased”.
